According to US20230416329A1, “A PEPTIDE WITH DISULFIDE BONDS AND INHIBITORY ACTIVITY AGAINST SERINE PROTEASES, DERIVED HYBRID PEPTIDES THEREOF, AND USES THEREOF” (INSTITUTE OF MATERIA MEDICA , CHINESE ACADEMY OF MEDICAL …, priority 2020, published 2023):
Read-outs that look alike come from different tables or passages of the source. Bridge positions count the residues as written; N and C are the ends. Square brackets hold non-standard residues; d marks the D form. Peptide text beside a SMILES is read from it. Abu = CC[C@H](N)C(=O)O

Target: porcine pancreatic elastase (Sus scrofa, UniProt P00772)
Sequence (P00772 27-266): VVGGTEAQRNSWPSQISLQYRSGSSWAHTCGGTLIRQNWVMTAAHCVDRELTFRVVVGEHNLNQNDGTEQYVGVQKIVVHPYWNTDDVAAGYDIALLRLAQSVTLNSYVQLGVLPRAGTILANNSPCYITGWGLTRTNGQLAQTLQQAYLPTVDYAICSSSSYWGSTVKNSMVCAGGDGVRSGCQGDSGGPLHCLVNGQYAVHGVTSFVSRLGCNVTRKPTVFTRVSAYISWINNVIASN
Experiment: Elastase inhibitory activity of peptides (AAApNA hydrolysis; IC50, Ki, residual activity)
Type: biochemical
Details: for Residual activity of elastase / IC50: elastase 0.5 μM, AAApNA 1 mM
Procedure: The inhibition constants of various synthetic active peptide inhibitors (molecular scaffolds) against seine proteases were measured. The substrates N-succinyl-Ala-Ala-Pro-Phe-p-nitroaniline (AAPFpNA), Nα—Benzoyl-L-arginine-4-nitroaniline hydrochloride (BApNA) and N-succinyl-[…] (AAApNA) are used in competitive binding reaction to determine the inhibitory activities against α-chymotrypsin, bovine trypsin, and porcine pancreatic elastase, respectively. Experiments for α-chymotrypsin and bovine trypsin inhibition were measured in 20 mM CaCl2, 50 mM Tris-HCl buffer (pH 7.8), and that for porcine elastase inhibition was measured in 50 mM Tris-HCl buffer (pH 8.0). The concentration of the peptide was measured using optical density (OD) at 280 nm. The Michaelis constant (Km) of the enzyme hydrolysis substrate is calculated from the initial rate of substrate hydrolysis at 405 nm. The absorbance value of the substrate was measured at 405 nm after complete hydrolysis. All data were processed using nonlinear regression.
• (1) Added a total 198 μL of reaction buffer (20 mM CaCl2, 50 mM Tris-HCl (pH 8.0)) into the 96 well plate, followed by preheating at 37° C. for 15 min. Then added 2 μL of different concentrations of substrates (pNA, dissolved in DMSO), and mixed by centrifugation at 500 rpm for 1 min. Finally, the plate was incubated at 37° C. for 30 min, and the absorbance value at 405 nm was measured. In the 200 μL of reaction system, the final concentrations of pNA were 0, 0.025, 0.05, 0.075, 0.1, 0.125, 0.15, 0.175, and 0.2 mM, respectively. Make three repetitions for each concentration and plot the OD405 m value with pNA concentration to obtain the standard curve. • (2) Added a total 190 μL of reaction buffer (20 mM CaCl2, 50 mM Tris-HCl (pH 8.0)) and 8 μL of 4.375 μM elastase into the 96 well plate, followed by preheating at 37° C. for 5 min. Then added 2 μL of different concentrations of substrates (AAApNA, dissolved in DMSO), and mixed by centrifugation at 500 rpm for 1 min. Finally, the plate was incubated at 37° C. for 30 min, and the absorbance value at 405 nm was measured. In the 200 μL of reaction system, the final concentrations of AAApNA were 0, 0.125, 0.166, 0.2, 0.25, 0.33, 0.6, 0.75, and 1.25 mM, respectively. Make three repetitions for each concentration and plot the OD405 nm value with time to obtain the corresponding curve. Divide the slope of the curve by the slope of the standard curve and the enzyme concentration to obtain the initial velocity V0 (mM/(min*mM protein). Plot the initial velocity V0 with the concentration of substrate AAApNA using Prism software, and the Michaelis constant Km value of elastase hydrolyzing AAApNA was obtained.
• (1) Added a total 190 μL of different concentrations of peptides (ECs) against elastase and reaction buffer (20 mM CaCl2, 50 mM Tris-HCl buffer (pH 8.0)) into the pre-cold 96 well plate, followed by preheating at 37° C. for 5 min and centrifugated at 500 rpm for 1 min and allowed to stand for 4 minutes. Then added 8 μL of 12.5 μM elastase and incubated at 37° C. for 10 min and centrifugated at 500 rpm for 1 min and allowed to stand for 9 minutes. Finally, added 2 μL of 100 mM AAApNA, and mixed by centrifugation at 500 rpm for 1 min. The plate was incubated at 37° C. for 60 min, and the absorbance value at 405 nm was measured. Three repetitions were made, and only reaction buffer and substrate were added in the blank control as the minimum absorption value (Min OD405 nm); Only reaction buffer, enzyme and substrate were added in the negative control as the maximum absorption value (Max OD405 nm). • (2) In the 200 μL of reaction system, the final concentrations of elastase and AAApNA were 0.5 μM and 1 mM, respectively. • (3) Data statistics
Residual activity of enzyme (%)=(1−(Max OD405 nm−Sample OD405 nm)/(Max OD405 nm−Min OD405 nm))*100 […]

| Structure (SMILES) | Residual activity of elastase (peptide 0.001 μM) | Residual activity of elastase (peptide 0.01 μM) | Residual activity of elastase (peptide 0.1 μM) | Residual activity of elastase (peptide 1 μM) | Residual activity of elastase (peptide 10 μM) | Residual activity of elastase (peptide 100 μM) | Residual activity of elastase (peptide 1000 μM) | IC50 | further results |
| --- | --- | --- | --- | --- | --- | --- | --- | --- | --- |
| CC[C@H](C)[C@H](N)C(=O)N[C@H]1CSSC[C@@H](C(=O)N[C@@H](CCC(N)=O)C(=O)O)NC(=O)[C@H](CCC(N)=O)NC(=O)[C@@H]2CCCN2C(=O)[C@@H]2CCCN2C(=O)[C@H]([C@@H](C)CC)NC(=O)[C@H](CO)NC(=O)[C@H](C)NC(=O)[C@H]([C@@H](C)O)NC1=O [EC19] (H-ICTASIPPQCQ-OH; disulfide 2-10; N-terminus and C-terminus assumed) | 99.9 ± 0.5% | 99.4 ± 0.1% | 96.1 ± 0.9% | 52.1 ± 1.8% | 5.4 ± 0.3% | 0.2 ± 0.1% | 0.0 ± 0.0% | – | Residual activity of elastase (peptide 0.5 μM): 81.2 ± 4.1%; Residual activity of elastase (peptide 2 μM): 29.8 ± 0.8%; Residual activity of elastase (peptide 4 μM): 15.5 ± 0.3%; Ki (read-out: Ki): 330 nM |
| CC[C@H](C)[C@@H]1NC(=O)[C@H](CO)NC(=O)[C@H](C)NC(=O)[C@H]([C@@H](C)O)NC(=O)[C@@H](NC(=O)[C@@H](N)CC(C)C)CSSC[C@@H](C(=O)N[C@@H](CCCNC(=N)N)C(=O)O)NC(=O)[C@H](CCC(N)=O)NC(=O)[C@@H]2CCCN2C(=O)[C@@H]2CCCN2C1=O [EC20] (H-LCTASIPPQCR-OH; disulfide 2-10; N-terminus and C-terminus assumed) | – | – | – | – | – | – | – | > 50000 nM | – |
| CC[C@H](C)[C@@H]1NC(=O)[C@@H]2CCCN2C(=O)[C@@H]2CCCN2C(=O)[C@H]([C@@H](C)CC)NC(=O)[C@H](CO)NC(=O)[C@H](C)NC(=O)[C@H]([C@@H](C)O)NC(=O)[C@@H](NC(=O)[C@@H](N)C(C)C)CSSC[C@@H](C(=O)N[C@@H](CCC(N)=O)C(=O)O)NC1=O [EC22] (H-VCTASIPPICQ-OH; disulfide 2-10; C-terminus assumed) | 100.1 ± 1.0% | 99.8 ± 0.3% | 92.0 ± 6.8% | 20.4 ± 1.2% | 2.4 ± 0.2% | 0.0 ± 0.0% | −0.2 ± 0.2% | 400 nM | Residual activity of elastase (peptide 0.2 μM): 70.8 ± 4.3%; Residual activity of elastase (peptide 0.4 μM): 51.6 ± 1.7%; Ki (read-out: Ki): 110 nM |
| CC[C@H](C)[C@H](N)C(=O)N[C@H]1CSSC[C@@H](C(=O)N[C@@H](CCC(N)=O)C(=O)O)NC(=O)[C@H]([C@@H](C)CC)NC(=O)[C@@H]2CCCN2C(=O)[C@@H]2CCCN2C(=O)[C@H]([C@@H](C)CC)NC(=O)[C@H](CO)NC(=O)[C@H](C)NC(=O)[C@H]([C@@H](C)O)NC1=O [EC23] (H-ICTASIPPICQ-OH; disulfide 2-10; C-terminus assumed) | 103.0 ± 2.2% | 97.8 ± 4.8% | 76.8 ± 3.1% | 15.1 ± 0.9% | 1.5 ± 0.3% | −0.2 ± 0.1% | −0.2 ± 0.1% | – | Residual activity of elastase (peptide 0.2 μM): 56.4 ± 2.9%; Residual activity of elastase (peptide 0.4 μM): 40.8 ± 2.0%; Residual activity of elastase (peptide 0.6 μM): 23.7 ± 0.2%; Ki (read-out: Ki against elastase): 70 nM |
| CC(C)C[C@H](N)C(=O)N[C@H]1CSSC[C@@H](C(=O)N[C@@H](CCCNC(=N)N)C(=O)O)NC(=O)[C@H]([C@@H](C)O)NC(=O)[C@@H]2CCCN2C(=O)[C@@H]2CCCN2C(=O)[C@H](CC(N)=O)NC(=O)[C@H](CO)NC(=O)[C@H](C)NC(=O)[C@H]([C@@H](C)O)NC1=O [EC28] (H-LCTASNPPTCR-OH; disulfide 2-10) | – | – | – | – | – | – | – | > 50000 nM | – |
| CC[C@H](C)[C@@H]1NC(=O)[C@@H]2CCCN2C(=O)[C@@H]2CCCN2C(=O)[C@H]([C@@H](C)CC)NC(=O)[C@H](CO)NC(=O)[C@H](C)NC(=O)[C@H]([C@@H](C)O)NC(=O)[C@@H](NC(=O)[C@@H](N)Cc2ccc(O)cc2)CSSC[C@@H](C(=O)N[C@@H](CCC(N)=O)C(=O)O)NC1=O [EC29] (H-YCTASIPPICQ-OH; disulfide 2-10; C-terminus assumed) | 105.9 ± 2.2% | 102.0 ± 2.9% | 92.6 ± 2.7% | 47.5 ± 0.7% | 5.9 ± 0.4% | 0.1 ± 0.1% | 0.1 ± 0.0% | – | Residual activity of elastase (peptide 0.5 μM): 72.7 ± 4.4%; Residual activity of elastase (peptide 2 μM): 28.5 ± 0.4%; Residual activity of elastase (peptide 6 μM): 8.9 ± 0.4% |
| CC[C@H](C)[C@@H]1NC(=O)CNC(=O)[C@@H](N)CSSC[C@@H](C(=O)N[C@@H](CCC(N)=O)C(=O)O)NC(=O)[C@H]([C@@H](C)CC)NC(=O)[C@@H]2CCCN2C(=O)[C@@H]2CCCN2C(=O)[C@H]([C@@H](C)CC)NC(=O)[C@H](CO)NC(=O)[C@H](C)NC(=O)[C@H]([C@@H](C)O)NC(=O)[C@H](C)NC1=O [EC30] (H-CGIATASIPPICQ-OH; disulfide 1-12) | – | – | – | – | – | – | – | > 50000 nM | – |
| CC[C@@H]1NC(=O)[C@H]([C@@H](C)CC)NC(=O)CNC(=O)[C@@H](N)CSSC[C@@H](C(=O)N[C@@H](CCC(N)=O)C(=O)O)NC(=O)[C@H]([C@@H](C)CC)NC(=O)[C@@H]2CCCN2C(=O)[C@@H]2CCCN2C(=O)[C@H]([C@@H](C)CC)NC(=O)[C@H](CO)NC(=O)[C@H](C)NC(=O)[C@H]([C@@H](C)O)NC1=O [EC31] (H-CGI[Abu]TASIPPICQ-OH; disulfide 1-12) | – | – | – | – | – | – | – | > 50000 nM | – |
| CC[C@H](C)[C@@H]1NC(=O)CNC(=O)[C@@H](N)CSSC[C@@H](C(=O)N[C@@H](CCC(N)=O)C(=O)O)NC(=O)[C@H]([C@@H](C)CC)NC(=O)[C@@H]2CCCN2C(=O)[C@@H]2CCCN2C(=O)[C@H]([C@@H](C)CC)NC(=O)[C@H](CO)NC(=O)[C@H](C)NC(=O)[C@H]([C@@H](C)O)NC(=O)[C@H](CO)NC1=O [EC34] (H-CGISTASIPPICQ-OH; disulfide 1-12) | – | – | – | – | – | – | – | > 50000 nM | – |
| CC[C@H](C)[C@@H]1NC(=O)CNC(=O)[C@@H](N)CSSC[C@@H](C(=O)N[C@@H](CCC(N)=O)C(=O)O)NC(=O)[C@H]([C@@H](C)CC)NC(=O)[C@@H]2CCCN2C(=O)[C@@H]2CCCN2C(=O)[C@H]([C@@H](C)CC)NC(=O)[C@H](CO)NC(=O)[C@H](C)NC(=O)[C@H]([C@@H](C)O)NC(=O)[C@H](Cc2ccccc2)NC1=O [EC36] (H-CGIFTASIPPICQ-OH; disulfide 1-12) | – | – | – | – | – | – | – | > 50000 nM | – |
